From US20120021010A1, “ANTIPLATELET AGENT AND METHODS OF USING THE SAME” (University of Calcutta, priority 2010, published 2012) come the findings set out here.

This assay concerns platelets. The assay is described as follows: ADP-induced platelet aggregation, chronolog optical aggregometry. In kind it is cell-based, human. The conditions noted are these: platelets of patient treated with clopidogrel; inset of FIG. 3C. On the procedure: In this example, platelet aggregation in the presence of SPIONs and various agonists was examined. The study was carried out using chronolog optical aggregometry.
FIGS. 2A and 2B respectively represent aggregometric results in presence of the agonists arachidonic acid (0.5 mM) and ADP (10 μM). Arachidonic acid is the main target for the antiplatelet drug aspirin and ADP is the main target for the antiplatelet drug clopidogrel. […] Thus, SPIONs cause no change in ADP- and arachidonic acid-induced aggregation of platelets from normal healthy individuals. The 85% to 95% aggregation increase in FIG. 2B can be ignored as the fractional increase is insignificant.

For the molecule `COC(=O)[C@H](c1ccccc1Cl)N1CCc2sccc2C1` [clopidogrel], the “ADP-induced platelet aggregation in a patient treated with clopidogrel” value is listed as “ADP cannot induce aggregation”.
